According to patent US20150104466A1, “CYTOMEGALOVIRUS DISINTEGRIN-LIKE PEPTIDES” (priority 2013, published 2015):

Legend:
[1] = system: HCMV strain AD169; assay: Virus entry assay: HCMV infectivity by IE gene expression (immunofluorescence); assay type: cell-based, Human cytomegalovirus; conditions: NHDFs treated with peptide or antibody prior to HCMV challenge
Description: (§1) For CMV entry assays, subconfluent cells were grown on glass coverslips in 12-well plates. Integrin neutralizing antibodies or peptides were incubated in serum-free DMEM with cell monolayer for 30 minutes at 37° C. Cells were washed with phosphate-buffered saline (PBS) and incubated with HCMV strain AD169, MCMV Smith strain, or MCMV-GFP for 60 minutes at 37° C. Any non-penetrated virus was inactivated with low-pH citrate buffer (40 mM citric acid, 10 mM KCl, 135 mM NaCl, pH 3.0). The cells were incubated 20-24 hours at 37° C. in DMEM supplemented with 2% bovine calf serum (BCS). […] Experiments were performed in triplicate with a minimum of 1000 cells scored per coverslip. […] Cells were incubated 6 hours at 37° C. in DMEM supplemented with 10% BCS prior to lysis (100 mM sodium phosphate, 10 mM KCl, 1 mM magnesium sulfate, 0.1% NP-40, pH 7.4). β-galactosidase activity was measured by addition of o-nitrophenyl-β-D-galactopyranoside (ONPG) and the absorbance was monitored at 420 nm.
FIG. 2A presents the results of a series of assays wherein NHDFs were treated with HCMV gB disintegrin-like peptide, gB disintegrin-like Null peptide, RGD, or RGE peptide prior to HCMV challenge (as indicated in the FIG. 2A). Infectivity was determined by IE gene expression. […]

[2] = system: NHDF cells; assay: Cytoskeletal rearrangement in NHDF cells (actin staining with phalloidin); assay type: cell-based, human; conditions: compared to buffer alone
Description: gBDLD Triggers Cytoskeletal Rearrangements: β1 integrins are known inducers of broad signal transduction events. […] To test the role of gBDLD in mediating signaling events, we stimulated NHDF cells with buffer alone, gBDLD, or a known cytoskeletal reorganizer (EGF), followed by actin staining with phalloidin.

[3] = system: MCMV; assay: Virus entry assay: MCMV infectivity (e1-positive cells); assay type: cell-based, Murine cytomegalovirus; conditions: mouse fibroblasts (murine 3T3) treated with peptide, then MCMV challenge
Description: as §1
FIG. 4B is a histogram showing the results of an assay wherein GD25, GD25β1 and 3T3 cells were treated with β1, β3, and β1+β3 antibodies, followed by MCMV infection. As described above, infectivity was determined by scoring e1-(early protein) positive cells. […]

[4] = system: HCMV; assay: Viral payload delivery: pp65 localization in fibroblasts after HCMV infection; assay type: cell-based, Human cytomegalovirus; conditions: human fibroblasts treated, then infected with HCMV
Description: as §1
Next, an assay was performed that directly measured delivery of an internal virion component. […] FIG. 6B is a histogram showing the results of a series of assays wherein human fibroblasts were treated with various integrin-blocking agents, infected with HCMV, and then assayed for viral payload as measured by pp65 localization. […]

[5] = system: HCMV AD 169; assay: Virus binding assay: HCMV attachment to NHDF cells at 4° C. (gB ELISA); assay type: cell-based, Human cytomegalovirus; conditions: 1 mM peptide, 1:50 DE9, α2 and α6 antibodies 20 μg/mL
Description: NHDF cells were grown in 96-well plates and treated with integrin-neutralizing antibodies, peptides, or heparin for 60 minutes at 4° C. Cells were then challenged with HCMV AD 169 at a multiplicity of infection (MOI) of 5 pfu/cell for 60 minutes at 4° C. Unbound virus was removed and cells were washed and fixed with 3% paraformaldehyde. Bound HCMV was detected with monoclonal antibody 27-78, horseradish peroxidase (HRP)-conjugated goat anti-mouse secondary antibody, and ImmunoPure TMB Substrate Kit (Pierce, Rockford, Ill.). Absorbance was measured at 450 nm. All experiments were performed in triplicate.
During virus infection, integrins are utilized as primary viral attachment receptors or as post-attachment (fusion-activating) or internalization receptors.^11 To determine at which step in the HCMV entry pathway integrins are functioning, cell binding (i.e., attachment) experiments were performed, as well as assays to measure viral payload delivery into the cytoplasm (internalization). For the binding assays, virus was bound at 4° C. to allow for stable virus binding, but to restrict fusion and internalization. The results are depicted in FIG. 6A. […] Attachment was measured by gB ELISA.

[6] = system: HSV-1(KOS)gL86; assay: HSV entry assay (β-galactosidase activity); assay type: cell-based, herpes simplex virus-1; conditions: cells treated with peptide, then HSV-1 challenge
Description: For CMV entry assays, subconfluent cells were grown on glass coverslips in 12-well plates. Integrin neutralizing antibodies or peptides were incubated in serum-free DMEM with cell monolayer for 30 minutes at 37° C. Cells were washed with phosphate-buffered saline (PBS) and incubated with HCMV strain AD169, MCMV Smith strain, or MCMV-GFP for 60 minutes at 37° C. Any non-penetrated virus was inactivated with low-pH citrate buffer (40 mM citric acid, 10 mM KCl, 135 mM NaCl, pH 3.0). The cells were incubated 20-24 hours at 37° C. in DMEM supplemented with 2% bovine calf serum (BCS). Immunofluorescence analysis was performed as previously described^28 with either mouse anti-IE monoclonal antibody 1203, mouse anti-pp65 monoclonal antibody or rabbit anti-MCMV el polyclonal, followed by detection with a fluorescein-conjugated goat anti-mouse secondary or a fluorescein-conjugated goat anti-rabbit secondary antibody. Nuclei were stained with 300 nM 4′,6-diamidino-2-phenylindole (DAPI). Experiments were performed in triplicate with a minimum of 1000 cells scored per coverslip. […] Cells were incubated 6 hours at 37° C. in DMEM supplemented with 10% BCS prior to lysis (100 mM sodium phosphate, 10 mM KCl, 1 mM magnesium sulfate, 0.1% NP-40, pH 7.4). β-galactosidase activity was measured by addition of o-nitrophenyl-β-D-galactopyranoside (ONPG) and the absorbance was monitored at 420 nm.

Substance	inhibition of HCMV infectivity compared to infectivity seen with no treatment [1]	reorganization of the cytoskeleton [2]	MCMV infectivity after peptide treatment [3]	uptake of pp65 tegument protein [4]	HCMV attachment (binding) to host cells [5]	ability of HSV-1 to infect cells after peptide treatment [6]
AVCSMAGGTAAIRAERNIIC (listed as Human cytomegalovirus) [gB disintegrin-like null peptide, null peptide containing alanine substitutions in the disintegrin-like consensus residues, reference compound]	HCMV was able to infect					
EGF: a known cytoskeletal reorganizer [reference compound]		triggered a dramatic reorganization of the cytoskeleton				
RVCSMAQGTDLIRFERNIIC (listed as Human cytomegalovirus) [gB disintegrin-like peptide, 20 amino acid synthetic peptide encompassing the HCMV gB disintegrin-like domain]	dose-dependent inhibitory response to infection		dramatic reduction in MCMV infectivity	little uptake of the pp65 tegument protein	no effect on HCMV attachment	no effect
